Measurements reported in patent US20190169140A1, “IDO1 INHIBITOR AND PREPARATION METHOD AND APPLICATION THEREOF” (SHANDONG LUYE PHARMACEUTICAL CO., LTD., priority 2016, published 2019).
pIC50: −log10 of the molar value.

How the values were obtained:
[1] = biological target: T1, recombinant human IDO1 enzyme (Homo sapiens, UniProt P14902); assay: Test of hIDO1 for enzymatic activity in vitro (NFK Green fluorescence); assay type: biochemical
T1 construct: purchased NTRC (Netherlands Translational Research Center) NTRC-hIDO-10K
T1 sequence (P14902 whole entry): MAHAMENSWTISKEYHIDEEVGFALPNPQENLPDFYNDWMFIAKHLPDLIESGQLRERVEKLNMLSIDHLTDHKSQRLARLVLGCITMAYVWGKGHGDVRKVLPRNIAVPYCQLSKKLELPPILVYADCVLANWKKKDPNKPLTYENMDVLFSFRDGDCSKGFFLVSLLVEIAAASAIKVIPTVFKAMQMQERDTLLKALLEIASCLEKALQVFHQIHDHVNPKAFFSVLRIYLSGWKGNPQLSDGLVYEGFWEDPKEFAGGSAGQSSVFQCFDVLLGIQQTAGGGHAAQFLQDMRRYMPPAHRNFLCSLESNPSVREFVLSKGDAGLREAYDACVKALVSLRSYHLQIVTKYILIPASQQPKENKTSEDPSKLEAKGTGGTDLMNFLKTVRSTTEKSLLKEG
Protocol: 1. Test of hIDO1 for Enzymatic Activity In Vitro
1.1 Purpose of Experiment:
Changes in production of NFK, an IDO1 enzymatic metabolite were detected with NFK Green™ fluorescent molecules. With an IC50 value of a compound as an index, an inhibitory effect of the compound on recombinant human IDO1 enzyme was evaluated.
The compound was diluted with dimethyl sulfoxide (DMSO) to 1 mM, with 10 gradients, each 3-fold dilution, in duplicate. 48 μL of 50 mM phosphate buffer, having pH of 6.5, was transferred by the Bravo automatic liquid processing platform to the compound plate. Then 2 μL of an already diluted compound/DMSO solution was added. After even mixing, 10 μL of the resultant mixture was transferred to the enzymatic reaction plate.
IDO1 enzyme was diluted to 20 nM in a reaction buffer (50 mM phosphate buffer with pH of 6.5, 0.1% of Tween-20, 2% of glycerol, 20 mM ascorbic acid, 20 μg/ml catalase, and 20 μM methylene blue), 20 μL of the diluted IDO1 enzyme was transferred to the enzymatic reaction plate, and incubated at 23° C. for 30 minutes. 10 μL of 400 μM L-type tryptophan substrate was added to start reaction. The incubation lasted at 23° C. for 90 minutes. 10 μL of NFK Green™ fluorescent dye was added. The resultant mixture was sealed with the plate sealing film. After incubation at 37° C. for 4 hours, an Envision multi-functional plate reader was used for reading (Ex 400 nm/Em 510 nm).
A reference well to which the IDO1 enzyme was added but no compound was added was set to have an inhibition rate of 0%, and a reference well to which no IDO1 enzyme was added was set to have an inhibition rate of 100%. Data was analyzed with XLFit 5 to calculate an IC50 value of the compound.

[2] = biological target: T2, IDO1 enzyme in Hela cells (Homo sapiens, UniProt P14902); assay: Test of hIDO1 for cytological activity (Hela cell kynurenine by LCMS, interferon-γ induced); assay type: cell-based; conditions: interferon-γ 100 ng/ml, 20 hours
T2 construct: endogenous in cells; host or cells: Hela cells, induced with recombinant human interferon-γ
T2 sequence (P14902 whole entry): as above
Protocol: 2. Test of hIDO1 for Cytological Activity
Changes in Hela cell kynurenine were detected by an LCMS method. With an IC50 value of a compound as an index, an inhibitory effect of the compound on IDO1 enzyme was evaluated.
The culture medium, trypsin, and DPBS were preheated in water bath at 37° C. The culture medium was removed by sucking from cell culture, followed by cleaning the cell culture with 10 mL of DPBS; the preheated trypsin was added to the culture flask, which was revolved to make the culture flask covered by trypsin uniformly, and placed into an incubator at 37° C. with 5% CO2 for digestion for 1-2 minutes; 10-15 mL of the culture medium was used to suspend cells each T150, followed by centrifugation at 800 rpm for 5 minutes. 10 mL of the culture medium was used to resuspend the cells. 1 mL of the cell resuspension was pipetted, and counted with Vi-cell; the Hela cells were diluted to 5×10^5/mL with the culture medium, 80 μL of the diluted Hela cells were added to the 96-well cell plate, and incubated in the an incubator at 37° C. with 5% CO2 for 5-6 hours.
The compound was diluted with DMSO to 1 mM, with 9 gradients, each 3-fold dilution, in duplicate. 5 μL of the already diluted compound DMSO solution was added to the compound plate containing 95 μL of the culture medium. After even mixing, 10 μL of the mixture was transferred to the cell plate.
10 μL of recombinant human interferon-γ was added to result in a final concentration of 100 ng/ml, to induce expression of IDO1. Incubation was carried out in the 5% CO2 incubator at 37° C. for 20 hours. 4 μL of 5% (w/v) trichloroacetic acid was added, followed by even mixing and incubation at 50° C. for 30 minutes. After centrifugation at 2400 rpm for 10 minutes, 40 μL of a supernatant was added to a 96-well V-bottom plate, followed by addition of a precipitant. Centrifugation was carried out at 4000 rpm for 10 minutes after even mixing. 100 μL of the supernatant was transferred to a new 96-well V-bottom plate. A content of kynurenine was detected through LCMS.
A reference well to which the interferon-γ was added but no compound was added was set to have an inhibition rate of 0%, and a reference well to which no Hela cell was added was set to have an inhibition rate of 100%. Data was analyzed with XLFit 5 to calculate an IC50 value of the compound.

Structure (SMILES)	pIC50 [1]	pIC50 [2]
O/N=C(\Nc1ccc(F)c(Br)c1)c1nonc1O [Compound 0026]	< 5.00	–
COc1nonc1/C(=N/O)Nc1ccc(F)c(Br)c1 [Compound 0052]	6.96	7.60
CSc1nonc1/C(=N/O)Nc1ccc(F)c(Br)c1 [Compound 0068]	6.95	7.54
COc1nonc1/C(=N/C#N)Nc1ccc(F)c(Br)c1 [Compound 0069]	< 5.00	–
NS(=O)(=O)NC1(COc2nonc2/C(=N/O)Nc2ccc(F)c(Br)c2)CC1 [Compound 0070]	5.86	–
CC(COc1nonc1/C(=N/O)Nc1ccc(F)c(Br)c1)NS(N)(=O)=O (stereo not drawn) [Compound 0071]	6.10	–
NOc1nonc1/C(=N/O)Nc1ccc(F)c(Br)c1 [Compound 0077]	< 5.00	–
CC(C)(C)OC(=O)NOc1nonc1/C(=N/O)Nc1ccc(F)c(Br)c1 [Compound 0078]	< 5.00	–
NS(=O)(=O)NC(COc1nonc1/C(=N/O)Nc1ccc(F)c(Br)c1)c1ccccc1 (stereo not drawn) [Compound 0089]	6.01	–
COc1nonc1/C(=N/O)Nc1ccc(F)c(C#N)c1 [Compound 0103]	6.27	–
CS(=O)(=O)NCCOc1nonc1/C(=N/O)Nc1ccc(F)c(Br)c1 [Compound 0106]	6.98	7.43
O=S(=O)(NCCOc1nonc1/C(=N/O)Nc1ccc(F)c(Br)c1)c1ccccc1 [Compound 0107]	5.89	–
O=C(NCCOc1nonc1/C(=N/O)Nc1ccc(F)c(Br)c1)c1ccccc1 [Compound 0108]	6.41	–
NS(=O)(=O)NCCCOc1nonc1/C(=N/O)Nc1ccc(F)c(Br)c1 [Compound 0118]	7.26	7.19
CC(CNS(N)(=O)=O)Oc1nonc1/C(=N/O)Nc1ccc(F)c(Br)c1 (stereo not drawn) [Compound 0119]	5.68	–
N#Cc1cc(N/C(=N\O)c2nonc2OCCNS(N)(=O)=O)ccc1F [Compound 0120]	6.21	–
NS(=O)(=O)NCCOc1nonc1/C(=N/O)Nc1ccc(F)c(C(F)(F)F)c1 [Compound 0121]	6.73	–
NS(=O)(=O)NCCOc1nonc1/C(=N/O)Nc1ccc(F)c(C2CC2)c1 [Compound 0122]	6.25	–
O/N=C(\Nc1ccc(F)c(Br)c1)c1nonc1OC1CCOC1 (stereo not drawn) [Compound 0124]	5.99	–
COCCCCOc1nonc1/C(=N/O)Nc1ccc(F)c(Br)c1 [Compound 0128]	6.22	–

Structure (SMILES)	pIC50 [1]	pIC50 [2]
O/N=C(\Nc1ccc(F)c(Br)c1)c1nonc1OCC1COC1 [Compound 0129]	6.37	–
O/N=C(\Nc1ccc(F)c(Br)c1)c1nonc1OCCc1ccccn1 [Compound 0131]	6.15	–
CN(CCOc1nonc1/C(=N/O)Nc1ccc(F)c(Br)c1)Cc1ccccc1 [Compound 0133]	5.99	–
O/N=C(\Nc1ccc(F)c(Br)c1)c1nonc1SCc1ccccc1Cl [Compound 0134]	5.15	–
O/N=C(\Nc1ccc(F)c(Br)c1)c1nonc1OCC(F)(F)F [Compound 0135]	5.48	–
O/N=C(\Nc1ccc(F)c(Br)c1)c1nonc1SC1CCCCC1 [Compound 0137]	5.24	–
C=CCSc1nonc1/C(=N/O)Nc1ccc(F)c(Br)c1 [Compound 0138]	6.44	–
CNC(=O)COc1nonc1/C(=N/O)Nc1ccc(F)c(Br)c1 [Compound 0139]	6.58	7.00
CN(C)CCOc1nonc1/C(=N/O)Nc1ccc(F)c(Br)c1 [Compound 0140]	6.71	–
CS(=O)(=O)N1CC(COc2nonc2/C(=N/O)Nc2ccc(F)c(Br)c2)C1 [Compound 0141]	6.34	–
CS(=O)(=O)N1CCC(COc2nonc2/C(=N/O)Nc2ccc(F)c(Br)c2)CC1 [Compound 0142]	5.88	–
O/N=C(\Nc1ccc(F)c(Br)c1)c1nonc1OCc1c[nH]cn1 [Compound 0143]	< 5.00	–
O/N=C(\Nc1ccc(F)c(Br)c1)c1nonc1OCc1cncs1 [Compound 0144]	< 5.00	–
NCCOc1nonc1/C(=N/O)Nc1ccc(F)c(Br)c1 [Compound 0147]	7.15	6.91
O=S(=O)(O)NCCOc1nonc1/C(=N/O)Nc1ccc(F)c(Br)c1 [Compound 0148]	6.83	6.80
CP(C)(=O)NCCOc1nonc1/C(=N/O)Nc1ccc(F)c(Br)c1 [Compound 0149]	6.54	–
O/N=C(\Nc1ccc(F)c(Br)c1)c1nonc1Oc1ccc(Cl)cc1 [Compound 0150]	< 5.00	–
NS(=O)(=O)NCCOc1nonc1C(=NO)Nc1ccc(F)c(C(F)F)c1 [Compound 0151]	6.83	7.60
O=CNCCOc1nonc1/C(=N/O)Nc1ccc(F)c(Br)c1 [Compound 0153]	6.81	7.08
NS(=O)(=O)NCCOc1nonc1/C(=N/O)Nc1cc(F)c(Cl)c(F)c1 [Compound 0156]	5.24	–

Structure (SMILES)	pIC50 [1]	pIC50 [2]
NS(=O)(=O)NCCSc1nonc1/C(=N/O)Nc1ccc(F)c(C(F)(F)F)c1 [Compound 0157]	6.80	7.87
COc1c(F)cc(N/C(=N\O)c2nonc2OCCNS(N)(=O)=O)cc1F [Compound 0158]	5.36	–
NS(=O)(=O)NCCOc1nonc1/C(=N/O)Nc1ccc(Cl)c(Cl)c1 [Compound 0160]	5.42	–
NS(=O)(=O)NCCOc1nonc1/C(=N/O)Nc1ccc(F)c(F)c1 [Compound 0162]	6.03	–
OCCOc1nonc1/C(=N/O)Nc1ccc(F)c(Br)c1 [Compound 0177]	6.55	7.27
O=C1NCCN1CCOc1nonc1/C(=N/O)Nc1ccc(F)c(Br)c1 [Compound 0179]	6.23	–
CCS(=O)(=O)CCOc1nonc1/C(=N/O)Nc1ccc(F)c(Br)c1 [Compound 0180]	< 5.00	–
CN(C)CCN(C)CCOc1nonc1/C(=N/O)Nc1ccc(F)c(Br)c1 [Compound 0182]	6.17	–
CCN(CC)C(=O)COc1nonc1/C(=N/O)Nc1ccc(F)c(Br)c1 [Compound 0183]	5.95	–
NS(=O)(=O)NCCOc1nonc1/C(=N/O)Nc1ccc(Cl)c(C(F)(F)F)c1 [Compound 0184]	5.32	–
NS(=O)(=O)NCCOc1nonc1/C(=N/O)Nc1cc(F)c(F)c(Br)c1 [Compound 0189]	6.23	–
NS(=O)(=O)NCCOc1nonc1/C(=N/O)Nc1ccc(F)c(Cl)c1 [Compound 0190]	6.02	–
NS(=O)(=O)N[C@H]1C[C@H](Oc2nonc2/C(=N/O)Nc2ccc(F)c(Br)c2)C1 [Compound 0222]	6.33	–
NS(=O)(=O)N[C@H]1C[C@@H](Oc2nonc2/C(=N/O)Nc2ccc(F)c(Br)c2)C1 [Compound 0225]	6.56	7.73
O=S(=O)(NCCSc1nonc1/C(=N/O)Nc1ccc(F)c(Br)c1)C1CC1 [Compound 0230]	6.69	–
CN(C)S(=O)(=O)NCCSc1nonc1/C(=N/O)Nc1ccc(F)c(Br)c1 [Compound 0232]	6.43	–
NS(=O)(=O)NCC[S+]([O-])c1nonc1/C(=N/O)Nc1ccc(F)c(Br)c1 (stereo not drawn) [Compound 0239]	6.07	–
CCNC(=O)CSc1nonc1C(=NO)Nc1ccc(F)c(Br)c1 [Compound 0300]	7.14	–
O=C(CSc1nonc1/C(=N/O)Nc1ccc(F)c(Br)c1)NCC(F)(F)F [Compound 0301]	6.90	–
O=C(CSc1nonc1/C(=N/O)Nc1ccc(F)c(Br)c1)NCC(F)F [Compound 0302]	7.06	–
